This data set can be described thus: Human HepG2 cell viability assay in 384 well format. Set-up: dose 125 nL, time 70.5 hour; cytotoxicity at 70.5 h: concentration not given beside the values. Format: toxicity, cell-based. Particulars: HepG2 cells, read-out: Inhibition.
In the case of `CN1CCN(CC(CC(=O)Nc2ccc(Cl)cc2)C(=O)O)CC1` (stereo unspecified), the cytotoxicity at 70.5 h is -5.4%.

For `Cc1noc(C(C)C)c1C(=O)NCC1CCN(c2ccccc2)C1` (stereo unspecified), the cytotoxicity at 70.5 h amounted to 6.36%.

On to `Cc1nc(O)cc(C2CCCN2CCO)n1` (stereo unspecified), for which the cytotoxicity at 70.5 h was -5.13%.

For the compound `CCN(c1ccc(C(=O)N2CCCC(C)C2)cc1)S(=O)(=O)CC` (stereo unspecified), the cytotoxicity at 70.5 h is -4.35%.

Consider `c1cc(-c2nc(CN3CCc4c(ncn4C4CC4)C3)cs2)cs1`, for which the cytotoxicity at 70.5 h is -8.75%.

For `c1cncc(CN2CCC(NCCc3ccc4c(c3)OCO4)CC2)c1`, the cytotoxicity at 70.5 h is 0.189%.

`CCC(CNC(=O)c1ccccn1)N1CCc2ccccc2C1` (stereo unspecified): the cytotoxicity at 70.5 h was determined as 10.5%.

Take `CN1CCOC(C(=O)N2CCC3(CCCC3)CC2)C1` (stereo unspecified): the cytotoxicity at 70.5 h is -2.13%.

As to `Cc1nc(CN(C)C2CCCN(c3cccnn3)C2)nc2ccccc12` (stereo unspecified), the cytotoxicity at 70.5 h was 1.21%.

In the case of `CC1(c2cc[nH]n2)CCN(C(=O)c2ccc(Cl)cc2)CC1`, the cytotoxicity at 70.5 h is -4.57%.

Take `COCC(=O)N1CCCC1c1nccnc1Nc1ncccn1` (stereo unspecified): the cytotoxicity at 70.5 h is -3.81%.

As to `CCc1cc(NCCNC(C)=O)nc(N2CCOCC2)n1`, the cytotoxicity at 70.5 h was -13.2%.

As for `CCn1c(CC2CCN(S(=O)(=O)N3CCCCC3)CC2)nn(C)c1=O`, the cytotoxicity at 70.5 h is -3.16%.

For the compound `CCC(CO)NCc1ccc(-c2ccc(F)cc2)o1` (stereo unspecified), the cytotoxicity at 70.5 h was -2.16%.

`Cc1noc(C)c1CN1CCO[C@H]2CN(C(=O)C3CCOCC3)C[C@H]21`: the cytotoxicity at 70.5 h is -0.225%.

On to `O=C1CCN(C(=O)C2(c3ccc(F)cc3)CCCCC2)CCN1`, for which the cytotoxicity at 70.5 h is -8.46%.

Regarding `CC(=O)N1CCC(NC(=O)c2cc(Cl)ccc2O)CC1`, the cytotoxicity at 70.5 h is -4.41%.

Turning to `CC(C)c1noc(CCC(=O)N2CCCC(n3ccnc3)C2)n1` (stereo unspecified), the cytotoxicity at 70.5 h is -5.4%.

As for `COc1cccc(Cc2nc3c([nH]2)CC(C)(C)CNC3=O)c1OC`, the cytotoxicity at 70.5 h is -1.08%.

In the case of `COc1cn(CC(N)=O)c(CSc2nc(C)cc(C)n2)cc1=O`, the cytotoxicity at 70.5 h is 59.2%.

As to `CN(C)C(=O)CNC(=O)c1cc2ccccc2nc1N1CCCC1`, the cytotoxicity at 70.5 h is -7.99%.

As to `CN(Cc1nnc2ccccn12)C(=O)CC1CCCCC1`, the cytotoxicity at 70.5 h was -8.16%.

For the compound `CNc1cc(C)nc(C2COCCN2Cc2csc(C)n2)n1` (stereo unspecified), the cytotoxicity at 70.5 h was -9.53%.

On to `OC1CCN(C2CCN(c3ccc(Cn4ccnc4)cn3)CC2)CC1`, for which the cytotoxicity at 70.5 h is -17.9%.

For `O=C(c1cc(Cl)c[nH]1)N(CCCO)Cc1cccnc1`, the cytotoxicity at 70.5 h is -8.59%.

Regarding `CCc1ccc(CN2CCC3(CC2)CN(c2cnn(C)c2)C(=O)CO3)o1`, the cytotoxicity at 70.5 h was -8.17%.

`CN1CCCc2cc(-c3cncn3CCNC3CCS(=O)(=O)C3)ccc21` (stereo unspecified): the cytotoxicity at 70.5 h was -4.36%.

Turning to `CCOc1ncccc1CNC(=O)CN1CCCCCC1=O`, the cytotoxicity at 70.5 h stood at 19.7%.

Turning to `COc1cccc(CNC[C@@]2(COc3cccnc3)C[C@@H](O)[C@@H](O)C2)c1`, the cytotoxicity at 70.5 h is -3.95%.

With `Cn1ncc2c(N3CCN4CCCCC4C3)nc(C3CCCC3)nc21` (stereo unspecified), the cytotoxicity at 70.5 h was -0.0598%.

For `O=C(NC[C@H]1OC[C@@H](NC2CCC(F)(F)CC2)[C@@H]1O)c1ccccc1`, the cytotoxicity at 70.5 h was -0.0244%.

In the case of `O=C(NC[C@H]1OC[C@@H](NCc2ccccc2)[C@@H]1O)Nc1ccccc1`, the cytotoxicity at 70.5 h was -3.94%.

Consider `CC(C)N(Cc1cccc(F)c1)Cc1nc2c(cnn2C)c(=O)[nH]1`, for which the cytotoxicity at 70.5 h stood at 0.718%.

For `CC(C)Oc1ncccc1CNC(=O)c1cc[nH]n1`, the cytotoxicity at 70.5 h was -7.86%.

As for `COc1ccccc1CN1CCCC(Cc2nccnc2N)C1` (stereo unspecified), the cytotoxicity at 70.5 h is -8.24%.

Consider `O=C(Nc1cnc(N2CCOCC2)nc1)c1ccc(C(F)(F)F)cc1`, for which the cytotoxicity at 70.5 h is 6.8%.

Consider `Fc1ccc(CNCCn2cccn2)c(Cl)c1`, for which the cytotoxicity at 70.5 h was found to be 6.68%.

Take `CC(=O)N1CCN(C(=O)CCOc2ccc(C(C)C)cc2)CC1`: the cytotoxicity at 70.5 h is -3.31%.

With `Cc1c(NC(C)C(C)C)cccc1C(=O)NCc1ccnn1C` (stereo unspecified), the cytotoxicity at 70.5 h was 4.31%.

With `CC(c1ccon1)N(C)C(=O)C1CCN(C2CCCCC2)CC1` (stereo unspecified), the cytotoxicity at 70.5 h is -1.12%.

Consider `CN(C)c1ccc(-c2ccnc3c2ccn3C)nn1`, for which the cytotoxicity at 70.5 h worked out at 18.4%.

In the case of `COCCN(Cc1ccco1)Cc1nc(-c2ccc(C)c(F)c2)no1`, the cytotoxicity at 70.5 h is 17.2%.

As to `CC(NC(=O)COc1ccccc1C(=O)O)c1ccc(F)cc1` (stereo unspecified), the cytotoxicity at 70.5 h is -9.45%.

For the compound `Cc1nc(CN2CCc3ncnc(-c4cccnc4)c3CC2)cs1`, the cytotoxicity at 70.5 h was 42.8%.

Turning to `O=C(CCc1c(F)cccc1F)N1CCCCC1Cn1cccn1` (stereo unspecified), the cytotoxicity at 70.5 h stood at 1.38%.

As to `Cc1nc(C2CCCN2C(=O)CCn2cncn2)no1` (stereo unspecified), the cytotoxicity at 70.5 h was -3.86%.

Turning to `COC[C@]12COC[C@H]1CN(Cc1cc(OC)cc(OC)c1)C2`, the cytotoxicity at 70.5 h was -10.3%.

Take `COCCn1c(=O)n(C)c(=O)c2ccc(C3CCN(C(C)=O)CC3)nc21`: the cytotoxicity at 70.5 h was -1.06%.

Regarding `CCCC(=O)N1CCCCC1C(=O)Nc1ccc(-c2nnc[nH]2)cc1` (stereo unspecified), the cytotoxicity at 70.5 h was -5.35%.

As to `Cc1cc(CC2COCCN(CCc3ccccc3)C2)ncn1` (stereo unspecified), the cytotoxicity at 70.5 h came out at 17.8%.

Turning to `CN(Cc1nc(-c2ccoc2)no1)C1CCCN(c2cccnn2)C1` (stereo unspecified), the cytotoxicity at 70.5 h came to 1.16%.

For the compound `Cc1cc(O)cc(C2CCCN2C(=O)c2ccncc2)n1` (stereo unspecified), the cytotoxicity at 70.5 h is -5.31%.

`COc1ccccc1-c1cc(NC(=O)COCC2CC2)[nH]n1`: the cytotoxicity at 70.5 h was -4.9%.

As for `Cc1cc(NC(C)C(=O)N2CCN(c3ncccn3)CC2)ccc1F` (stereo unspecified), the cytotoxicity at 70.5 h stood at 9.5%.

Consider `CC(C)c1nc(C2CCCN(Cc3nnc(C4CC4)o3)C2)no1` (stereo unspecified), for which the cytotoxicity at 70.5 h was -8.01%.

`Cc1cc(NCCO)nc(-c2ccccc2O)n1`: the cytotoxicity at 70.5 h turned out to be 6.62%.

Consider `Cc1cc(C)n2nc(C(=O)N3CCCC4(CNC(=O)O4)C3)cc2n1` (stereo unspecified), for which the cytotoxicity at 70.5 h was 13.7%.

On to `COC[C@]1(O)CCN(c2cc(OC)ncn2)CC1(C)C`, for which the cytotoxicity at 70.5 h is -11.7%.

As for `O=C(N1CCCC1)N1CCCC(c2nccn2Cc2ccncc2)C1` (stereo unspecified), the cytotoxicity at 70.5 h was -8.72%.

`Cc1ccc(C(=O)O)cc1S(=O)(=O)Nc1nn(-c2ccccc2)cc1C`: the cytotoxicity at 70.5 h was -0.199%.

Take `Cn1cc(CN(C(=O)c2ccc3ncsc3c2)C2CC2)cn1`: the cytotoxicity at 70.5 h turned out to be 19.6%.

Consider `CCNc1ncc(CN(Cc2ccccc2)CC(C)CO)cn1` (stereo unspecified), for which the cytotoxicity at 70.5 h was -4.08%.

Turning to `COCCNc1nc(C2CCCC2)nc2c1CCNCC2`, the cytotoxicity at 70.5 h turned out to be 2.05%.

Regarding `CCOC(C(=O)N1CCn2c(C)nnc2C1)c1ccccc1` (stereo unspecified), the cytotoxicity at 70.5 h is -11.7%.

With `CS(=O)(=O)N1Cc2ccnn2CC(C(=O)NCc2cccnc2)C1` (stereo unspecified), the cytotoxicity at 70.5 h was determined as 20.5%.

Turning to `COCCNC(=O)Cn1c(C)cc2nc(SC)n(CC(C)C)c(=O)c21`, the cytotoxicity at 70.5 h was 2.11%.

In the case of `O=C(c1ccc2c(c1)COC2)N1CCN(CCO)CC1`, the cytotoxicity at 70.5 h was -3.79%.

Turning to `Cc1cnn(CC2CN(CC(=O)NCc3ccccn3)CCO2)c1` (stereo unspecified), the cytotoxicity at 70.5 h was 14.8%.

With `CC(NCCCC#N)c1ccc(S(C)(=O)=O)c(F)c1` (stereo unspecified), the cytotoxicity at 70.5 h came to 9.59%.

Consider `Cc1cc(C(=O)N2CC[C@H]3C[C@H](c4ccncn4)O[C@@H]3C2)no1`, for which the cytotoxicity at 70.5 h was 12.7%.

`NC(=O)C1CCCN(c2ncnc3c2Cc2ccccc2OC3)C1` (stereo unspecified): the cytotoxicity at 70.5 h worked out at 19%.

Consider `O=C(NCc1ccccc1CN1CCOCC1)Nc1nncs1`, for which the cytotoxicity at 70.5 h came to 11%.

For `NC(=O)C1CCCN1c1cc(N2CCc3ccccc3C2)ncn1` (stereo unspecified), the cytotoxicity at 70.5 h is -5.82%.

For the compound `Cc1noc(CCCc2nc(C3CCOC3)no2)n1` (stereo unspecified), the cytotoxicity at 70.5 h was -18.7%.

Take `Cc1cc(C(=O)N2CC[C@H](N3CCOCC3)[C@H](CCCO)C2)c(C)n1C`: the cytotoxicity at 70.5 h is -16.1%.

Take `COC(C)(C)C(=O)N1Cc2cnc(C(C)(C)C)nc2C1`: the cytotoxicity at 70.5 h was -13.3%.

As to `CCCn1ccnc1CNC(=O)C1COc2cc(OC)ccc2C1` (stereo unspecified), the cytotoxicity at 70.5 h was -5.58%.

As for `CNC(=O)C1CCC2(CCN(c3ncc(C)cn3)CC2)CO1` (stereo unspecified), the cytotoxicity at 70.5 h is 4.35%.

With `Fc1ccccc1CN1CCCC2(CCN(c3ncccn3)C2)C1` (stereo unspecified), the cytotoxicity at 70.5 h is -9.02%.

For `Cn1cnc2c1C(C(=O)N1CCCO1)N(C(=O)c1ccccc1)CC2` (stereo unspecified), the cytotoxicity at 70.5 h is -9.14%.

As for `CCN1Cc2ccccc2CC2(CCN(C)CC2)C1=O`, the cytotoxicity at 70.5 h was -7.96%.

For the compound `CC(=O)N1CCN(C(=O)c2cnc(OC(C)C)c(Cl)c2)CC1`, the cytotoxicity at 70.5 h is -13.6%.

For the compound `COc1cc(CNC(=O)Nc2nnc(C3CC3)s2)ccc1O`, the cytotoxicity at 70.5 h is -8.51%.

Turning to `CC(=O)NC1CCCN(c2ccc(C#N)cc2C(F)(F)F)C1` (stereo unspecified), the cytotoxicity at 70.5 h is -0.014%.

With `O=C(c1cccc(=O)[nH]1)N(Cc1ccsc1)CC1CCCO1` (stereo unspecified), the cytotoxicity at 70.5 h is 5.57%.

With `Cc1nnc(C2CCN(C(=O)c3ccc(-n4cccc4)cc3)CC2)s1`, the cytotoxicity at 70.5 h was 28%.

Consider `O=C1C(N2CCOCC2)CCCN1Cc1cccc(C(F)(F)F)c1` (stereo unspecified), for which the cytotoxicity at 70.5 h is -17.4%.

On to `COc1ccc(CN2CCc3ncnc(OC(C)C)c3CC2)cc1`, for which the cytotoxicity at 70.5 h came out at 43.9%.

In the case of `CCCNC(=O)CCc1ccnc2ccccc12`, the cytotoxicity at 70.5 h is -14%.

Turning to `Cn1cc(CC2CCN(C(=O)NCc3cn4ccsc4n3)C2)cn1` (stereo unspecified), the cytotoxicity at 70.5 h was found to be 23.7%.

Consider `Cc1noc(C)c1CS(=O)(=O)Cc1nc(C2CC2)no1`, for which the cytotoxicity at 70.5 h was -0.106%.

As for `Nc1nc2c(c3c1C(=O)NC3=O)CCCC2`, the cytotoxicity at 70.5 h is -9.66%.

For the compound `N#CC1CCN(C(=O)CN2CC(c3ccccc3)CC2=O)CC1` (stereo unspecified), the cytotoxicity at 70.5 h is -4.6%.

As for `CC(=O)N(C)CC(=O)NC(C)c1ccc(OCCC(C)C)cc1` (stereo unspecified), the cytotoxicity at 70.5 h is -3.81%.

Turning to `Cc1cccc(Nc2cc(C)nc(C3CCCCN3CC(N)=O)n2)n1` (stereo unspecified), the cytotoxicity at 70.5 h is -4.2%.

As to `CC(C#N)CSc1ccccc1NCC(=O)NC1CCCCC1` (stereo unspecified), the cytotoxicity at 70.5 h was -1.2%.

For `CC(NC(=O)NCCCn1cncn1)c1ccccc1Cl` (stereo unspecified), the cytotoxicity at 70.5 h was -2.04%.

With `CC(O)CN1CCN(CCOCC(F)(F)F)CC1` (stereo unspecified), the cytotoxicity at 70.5 h was -7.92%.

As to `CC1(C)CN(S(=O)(=O)N2CCOCC2)CC1c1ccccc1` (stereo unspecified), the cytotoxicity at 70.5 h came to 1.45%.

For `Cc1ccc(NC(=O)NCC2(O)CCCC2)cc1C`, the cytotoxicity at 70.5 h is -1.58%.

Take `Cc1nc(CNC(=O)Nc2ccc3c(ccn3CCN(C)C)c2)no1`: the cytotoxicity at 70.5 h was -2.87%.
